{"source": "paper PMC5196434", "about": "“Proximity does not contribute to activity enhancement in the glucose oxidase–horseradish peroxidase cascade” (Nature Communications, 2016)", "target": "T1, glucose oxidase (GOx) (Aspergillus niger, UniProt P13006)", "T1 construct": "commercial type VII preparation (Sigma Aldrich), free enzyme", "T1 sequence (P13006 23-605)": "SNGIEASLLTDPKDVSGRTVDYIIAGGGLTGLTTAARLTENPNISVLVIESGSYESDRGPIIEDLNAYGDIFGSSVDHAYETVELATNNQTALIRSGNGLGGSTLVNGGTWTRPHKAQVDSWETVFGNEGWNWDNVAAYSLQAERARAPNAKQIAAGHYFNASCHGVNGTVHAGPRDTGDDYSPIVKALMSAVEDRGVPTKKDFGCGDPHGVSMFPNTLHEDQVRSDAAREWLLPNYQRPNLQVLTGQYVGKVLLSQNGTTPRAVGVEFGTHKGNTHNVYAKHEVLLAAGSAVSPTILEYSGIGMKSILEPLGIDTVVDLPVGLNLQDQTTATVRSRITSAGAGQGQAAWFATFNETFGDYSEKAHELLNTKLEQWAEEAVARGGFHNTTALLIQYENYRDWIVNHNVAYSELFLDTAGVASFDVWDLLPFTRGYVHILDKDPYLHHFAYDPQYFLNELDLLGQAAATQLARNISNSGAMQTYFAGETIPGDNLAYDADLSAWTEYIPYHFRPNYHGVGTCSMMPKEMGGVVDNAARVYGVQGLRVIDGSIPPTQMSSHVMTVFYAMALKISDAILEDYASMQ", "assay": "HRP-coupled ABTS colorimetric assay, absorbance at […] nm", "type": "biochemical", "settings": "co-substrate oxygen; 20 nM HRP, 2 mM ABTS; PBS pH 7.4; 23 °C; read-out: Michaelis-Menten kinetics (Km)"}
{"substance": "D-glucose", "values": [{"measurement": "Km", "value": 15, "unit": "mM"}]}
